PubChem BioAssay AID1259407 (Chemical Carcinogenesis Research Information System (CCRIS), 2018)
Activity calls are given as the source filed them. How the calls were made is not given here.

Tested on: CCRIS mutagenicity, Ames/micronucleus/aberration tests
Assay: CCRIS mutagenicity studies
[1] = Test System: AMES SALMONELLA TYPHIMURIUM, Strain/Indicator: TA98, Metabolic Activation: RAT, LIVER, S-9, AROCLOR 1254 (10%), Method: PREINCUBATION
[2] = Test System: AMES SALMONELLA TYPHIMURIUM, Strain/Indicator: TA100, Metabolic Activation: NONE, Method: PREINCUBATION
[3] = Test System: AMES SALMONELLA TYPHIMURIUM, Strain/Indicator: TA100, Metabolic Activation: NONE, Method: STANDARD PLATE
[4] = Test System: AMES SALMONELLA TYPHIMURIUM, Strain/Indicator: TA100, Metabolic Activation: RAT, LIVER, S-9, AROCLOR 1254 (10%), Method: PREINCUBATION
[5] = Test System: AMES SALMONELLA TYPHIMURIUM, Strain/Indicator: TA1535, Metabolic Activation: NONE, Method: PREINCUBATION
[6] = Test System: AMES SALMONELLA TYPHIMURIUM, Strain/Indicator: TA98, Metabolic Activation: NONE, Method: PREINCUBATION

SMILES: OCC(Cl)CCl (stereo not given)
- mutagenic call (Test System: AMES SALMONELLA TYPHIMURIUM, Strain/Indicator: TA97, Metabolic Activation: HAMSTER, LIVER, S-9, AROCLOR 1254 (10%), Method: PREINCUBATION): active; positive
- mutagenic call (Test System: AMES SALMONELLA TYPHIMURIUM, Strain/Indicator: TA97, Metabolic Activation: NONE, Method: PREINCUBATION): active; positive
- mutagenic call (Test System: AMES SALMONELLA TYPHIMURIUM, Strain/Indicator: TA97, Metabolic Activation: RAT, LIVER, S-9, AROCLOR 1254 (10%), Method: PREINCUBATION): active; positive
- mutagenic call (Test System: AMES SALMONELLA TYPHIMURIUM, Strain/Indicator: TA98, Metabolic Activation: HAMSTER, LIVER, S-9, AROCLOR 1254 (10%), Method: PREINCUBATION): active; positive
- mutagenic call [1]: active; positive
- mutagenic call (Test System: AMES SALMONELLA TYPHIMURIUM, Strain/Indicator: TA100, Metabolic Activation: HAMSTER, LIVER, S-9, AROCLOR 1254 (10%), Method: PREINCUBATION): active; positive
- mutagenic call [2]: active; positive
- mutagenic call [3]: active; positive
- mutagenic call [4]: active; positive
- mutagenic call (Test System: AMES SALMONELLA TYPHIMURIUM, Strain/Indicator: TA100, Metabolic Activation: RAT, LIVER, S-9, AROCLOR 1254, Method: STANDARD PLATE): active; positive
- mutagenic call (Test System: AMES SALMONELLA TYPHIMURIUM, Strain/Indicator: TA100, Metabolic Activation: RAT, LIVER, S-9, KANECHLOR 500, Method: PREINCUBATION): active; positive
- mutagenic call (Test System: AMES SALMONELLA TYPHIMURIUM, Strain/Indicator: TA1535, Metabolic Activation: HAMSTER, LIVER, S-9, AROCLOR 1254 (10%), Method: PREINCUBATION): active; positive
- mutagenic call [5]: active; positive
- mutagenic call (Test System: AMES SALMONELLA TYPHIMURIUM, Strain/Indicator: TA1535, Metabolic Activation: NONE, Method: STANDARD PLATE): active; positive
- mutagenic call (Test System: AMES SALMONELLA TYPHIMURIUM, Strain/Indicator: TA1535, Metabolic Activation: RAT, LIVER, S-9, AROCLOR 1254 (10%), Method: PREINCUBATION): active; positive
- mutagenic call (Test System: AMES SALMONELLA TYPHIMURIUM, Strain/Indicator: TA1535, Metabolic Activation: RAT, LIVER, S-9, AROCLOR 1254, Method: STANDARD PLATE): active; positive

SMILES: O=C1OCC(CCl)=C1Cl
- mutagenic call [3]: active; positive

SMILES: CCN=[N+]([O-])CC
- mutagenic call (Test System: AMES SALMONELLA TYPHIMURIUM, Strain/Indicator: TA1535, Metabolic Activation: HAMSTER, LIVER, S-9, AROCLOR 1254, Method: PREINCUBATION): inactive; negative
- mutagenic call [5]: inactive; negative
- mutagenic call (Test System: AMES SALMONELLA TYPHIMURIUM, Strain/Indicator: TA1535, Metabolic Activation: RAT, LIVER, S-9, AROCLOR 1254, Method: PREINCUBATION): inactive; negative

SMILES: Cc1cc(C)c2nc3c(ccc4ccccc43)c(C)c2c1
- mutagenic call (Test System: AMES SALMONELLA TYPHIMURIUM, Strain/Indicator: TA97A, Metabolic Activation: NONE, Method: PREINCUBATION): inactive; negative
- mutagenic call [6]: active; positive
- mutagenic call [2]: active; positive
- mutagenic call (Test System: AMES SALMONELLA TYPHIMURIUM, Strain/Indicator: TA102, Metabolic Activation: NONE, Method: PREINCUBATION): inactive; negative

SMILES: O=[N+]([O-])c1cccc2cc3ccccc3cc12
- mutagenic call [6]: active; positive
- mutagenic call [1]: active; positive
- mutagenic call [2]: active; positive
- mutagenic call [4]: active; positive

SMILES: NCCCNCCCCNCCCN
- mutagenic call (Test System: E. COLI, Strain/Indicator: WP2 UVRA (PKM101), Metabolic Activation: NONE, Method: STANDARD PLATE): inactive; negative
- mutagenic call (Test System: E. COLI, Strain/Indicator: WP2 UVRA/OXYR (PKM101), Metabolic Activation: NONE, Method: STANDARD PLATE): inactive; negative
